The nature of data set [1]: Bioavailability: peptide amount in plasma after oral administration to mice. It is filed as in vivo. The following applies: mouse, 500 ug, Balb/C mice, 500 μg each orally, two hours after administration, HPLC-MS. As for the experimental part:
Peptides SEQ ID NO: 1, SEQ ID NO: 2 and SEQ ID NO: 3 (purity of >95% in weight, 500 μg each) were orally administered to mice (Balb/C, 3 months of age). After 2 hours, mice were sacrificed and a blood sample collected. After centrifugation of the blood sample (5 min, 3000 g) plasma was collected, dried and resuspended in ethyl acetate. The samples were then analyzed by HPLC-MS, and the amount of the peptides of this invention present in the plasma samples calculated using standard curves. Two hours after their oral administration, all three peptides were found in the plasma samples in the following amounts: SEQ ID NO: 1: 7.5 μg/ml, SEQ ID NO: 2: 1.2 μg/ml, and SEQ ID NO: 3: 0.9 μg/ml.

The target of data set [2] is T1, angiotensin converting enzyme (ACE) (Oryctolagus cuniculus, UniProt P12822).
T1 construct: purchased Sigma
T1 sequence (P12822 34-1310): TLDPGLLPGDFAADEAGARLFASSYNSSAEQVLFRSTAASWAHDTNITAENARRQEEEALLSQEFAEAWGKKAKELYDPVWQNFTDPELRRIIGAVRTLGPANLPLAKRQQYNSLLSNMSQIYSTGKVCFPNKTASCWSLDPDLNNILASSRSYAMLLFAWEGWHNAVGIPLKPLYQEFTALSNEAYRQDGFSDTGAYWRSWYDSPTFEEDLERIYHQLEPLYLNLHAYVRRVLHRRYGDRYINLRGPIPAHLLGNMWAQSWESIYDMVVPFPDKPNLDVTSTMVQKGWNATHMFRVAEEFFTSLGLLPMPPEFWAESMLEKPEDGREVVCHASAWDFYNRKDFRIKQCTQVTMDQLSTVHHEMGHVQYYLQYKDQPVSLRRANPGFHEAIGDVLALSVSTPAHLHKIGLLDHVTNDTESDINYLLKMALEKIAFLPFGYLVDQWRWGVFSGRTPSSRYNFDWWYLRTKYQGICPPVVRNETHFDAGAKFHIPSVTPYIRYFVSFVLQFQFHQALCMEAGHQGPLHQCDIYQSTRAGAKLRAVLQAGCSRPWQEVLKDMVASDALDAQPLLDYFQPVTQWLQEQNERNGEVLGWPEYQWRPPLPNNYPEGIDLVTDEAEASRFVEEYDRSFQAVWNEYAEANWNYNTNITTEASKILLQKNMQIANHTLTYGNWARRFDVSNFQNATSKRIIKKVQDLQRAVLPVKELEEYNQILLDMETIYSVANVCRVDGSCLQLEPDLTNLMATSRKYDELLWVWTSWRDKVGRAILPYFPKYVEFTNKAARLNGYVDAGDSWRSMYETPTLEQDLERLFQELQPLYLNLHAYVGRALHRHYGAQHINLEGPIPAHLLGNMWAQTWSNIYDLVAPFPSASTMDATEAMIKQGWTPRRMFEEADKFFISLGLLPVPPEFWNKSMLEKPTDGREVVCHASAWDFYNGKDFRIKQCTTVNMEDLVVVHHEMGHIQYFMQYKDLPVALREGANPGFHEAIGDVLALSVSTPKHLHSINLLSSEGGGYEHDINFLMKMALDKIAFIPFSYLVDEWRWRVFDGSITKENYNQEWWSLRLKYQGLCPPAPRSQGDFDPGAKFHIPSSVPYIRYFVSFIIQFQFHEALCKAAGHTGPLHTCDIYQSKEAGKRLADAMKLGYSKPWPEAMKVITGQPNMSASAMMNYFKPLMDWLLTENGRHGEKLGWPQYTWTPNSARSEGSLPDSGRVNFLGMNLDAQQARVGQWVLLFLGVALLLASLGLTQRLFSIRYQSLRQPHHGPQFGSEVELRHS
The data set is described as follows: ACE assay with purified ACE enzyme (Inhibition of Angiotensin Converting Enzyme). In kind it is biochemical. As to conditions: purified ACE enzyme (Sigma); for ACE inhibiting activity (in words): judged from IC50 values; for pIC50: synthetic peptides, purity >95%. As to the method:
In order to determine IC50 values for the peptides included in this invention, pure peptides (purity of >95% in weight) were prepared by custom solid-phase synthesis on a 10 μmol scale and subsequently purified by HPLC (synthesis and purification performed by Eurosequence, the Netherlands). Purified ACE enzyme (Sigma) was used for the ACE assay (Wu et al. 2002 J. Chromatography 950, 125-130). […] Finally, the peptides which are fragments of the amino acid sequences shown in SEQ ID NO: 1, SEQ ID NO: 2 and SEQ ID NO: 3, respectively SEQ ID NO: 7, SEQ ID NO: 8 and SEQ ID NO: 9 were tested for their ACE inhibiting activity.

pIC50: −log10 of the molar value. Residues, ends and D or L forms follow the SMILES beside them. No end group written: not given here.

The term pIC50 denotes the IC50 on a negative log10 scale, so that one unit is a factor of ten. Regarding `CC(C)C[C@H](NC(=O)[C@@H](N)CO)C(=O)N1CCC[C@H]1C(=O)N[C@@H](CCC(=O)O)C(=O)O` [SEQ ID NO: 2] (H-SLPE-OH; N-terminus and C-terminus assumed), the level at 2 h in data set [1] is 1200 ng/mL. In data set [2], the “ACE inhibiting activity (in words)” value was “strong inhibitors of ACE” and the negative-log IC50 (pIC50) is 3.48.

LSEPKV [SEQ ID NO: 6]: in data set [2], the “ACE inhibiting activity (in words)” value was “good ACE inhibitors” and the pIC50 is 3.40.

For the molecule `NCCCC[C@H](NC(=O)[C@@H]1CCCN1C(=O)[C@H](CCC(=O)O)NC(=O)[C@@H](N)CO)C(=O)O` [SEQ ID NO: 3] (H-SEPK-OH; N-terminus and C-terminus assumed), the level at 2 h in data set [1] came out at 900 ng/mL. Also, in data set [2], the “ACE inhibiting activity (in words)” value is given as “strong inhibitors of ACE” and the pIC50 was 3.45.

Regarding GPIPN [SEQ ID NO: 7], in data set [2], the “ACE inhibiting activity (in words)” value is recorded as “good ACE inhibitors” and the pIC50 was 3.54.

In turn, YGPIPN [SEQ ID NO: 1] showed a level at 2 h in data set [1] of 7500 ng/mL. Besides, in data set [2], the “ACE inhibiting activity (in words)” value is reported as “strong inhibitors of ACE” and the pIC50 was 3.50.

Consider FYGPIPNS [SEQ ID NO: 4], for which, in data set [2], the “ACE inhibiting activity (in words)” value was “good ACE inhibitors” and the pIC50 is 3.36.

In the case of `CC(C)C[C@H](N)C(=O)N1CCC[C@H]1C(=O)N[C@@H](CCC(=O)O)C(=O)O` [SEQ ID NO: 8] (H-Leu-Pro-Glu-OH; N-terminus and C-terminus assumed), in data set [2], the “ACE inhibiting activity (in words)” value is “good ACE inhibitors” and the negative-log IC50 (pIC50) was 3.47.

In the case of `NCCCC[C@H](NC(=O)[C@@H]1CCCN1C(=O)[C@@H](N)CCC(=O)O)C(=O)O` [SEQ ID NO: 9] (H-Glu-Pro-Lys-OH; N-terminus and C-terminus assumed), in data set [2], the “ACE inhibiting activity (in words)” value is “good ACE inhibitors” and the pIC50 was 3.44.

Take NSLPEN [SEQ ID NO: 5]: in data set [2], the “ACE inhibiting activity (in words)” value was “good ACE inhibitors” and the pIC50 is 3.43.
